Several values for one entry are separate records, joined by “and”; a condition that tells them apart may be missing. Equal entries are not always repeated.
Experiments:
lipase = test: Effects of metal ions on lipase activity; type: biochemical; details: metal ions up to 10 mM
Excerpt: The activity was decreased by the following ions: Zn2+, Fe2+, Fe3+ and Cr3+.

lipase of SEQ ID NO: 2 [1] = test: Enantioselectivity of ester hydrolysis; type: biochemical, Thermoanaerobacter thermohydrosulfuricus
Protocol: The (S)-alcohols were formed. The lipase was more enantioselective towards butynol butyrate than towards butynol acetate. Over time the conversion increased for all four substrates and reached above 20-30% after 24 h of reactions time. Over time in the contrast to the conversion the enantioselectivity of the enzyme towards both substrates decreased for butynol butyrate from 16.7 to 8.06 and for butynol acetate from 9.15 to 2.65 after 40 h of reactions time. […] For two other substrates the enantioselectivity of the lipase (E≧1) was constant over time.

lipase of SEQ ID NO: 2 [2] = test: Effect of solvents on lipase activity; type: biochemical, Thermoanaerobacter thermohydrosulfuricus; details: solvent up to 50% by volume
lipase of SEQ ID NO: 2 [3] = test: Substrate specificity with triacylglycerols; type: biochemical, Thermoanaerobacter thermohydrosulfuricus; details: triacylglycerol 10 mM, pH 8.0, 25 h at 70° C.
Protocol: The lipase of SEQ ID NO: 2 was tested by reaction with various triacylglycerols 10 mM (pH 8.0) as substrates: for 25 h at 70° C. Similar results were obtained with the lipase of SEQ ID NO: 4.

[4] = system: lipase from T. thermohydrosulfuricum (SEQ ID NO: 2); test: Alcoholysis of triacylglycerols (positional specificity towards triglycerides); type: biochemical, Thermoanaerobacter thermohydrosulfuricus; details: for DG 1,2- 2,3- / DG 1,3- / FA (fatty acid) / MG 1- 3- / TG (remaining substrate): alcoholysis with ethanol in acetone, 7 h at 65° C.
Protocol: Alcoholysis of various triacylglycerols catalyzed by the lipase of SEQ ID NO: 2 were tested. All substrates were alcoholyzed by the lipase. […] For other substrates the conversions were above 40%. The lipase catalysed the synthesis of 1,3-diacylglycerides and 1- and 3-monoacylglycerides from triacylglycerides at highest rate. No sn2-monoglyceride was produced. […] With the length of the ester bonds the 2-positional specificity of the protein increased.
The positional specificity of the lipase from T. thermohydrosulfuricum (SEQ ID NO: 2) was tested towards the following triglycerides (TG, triacylglycerols): trilaurin (C12), trimyristin (C14), tripalmitin (C16), tristearin (C18), Triolein (C18:1). Each TG (3 mmol) was dissolved in organic solvent (2 ml acetone) and pre-equilibrated at 65° C. for 15 min, 400 rpm. Dry ethanol (3 mmol) was added and reaction mixture was incubated at 65° C. for 15 min, 400 rpm. Lipase (10% based on TG weight) was added to start reaction. Reaction was carried out in a 4-ml screw-capped vial and the reaction mixture was mixed with magnetic stirrer (400 rpm). Aliquot amount of reaction mixture (20 μl) was periodically withdrawn and diluted with chloroform (80 μl) to appropriate dilution, followed by analysis with latroscan to determine acylglycerol composition.
Changes in glycerides composition of the reaction medium during reaction were quantitatively determined by TLC/FID using latroscan analytical methods (latroscan, latron Laboratories, Inc., Tokyo, Japan). Before analysis, a blank of the chromarod was scanned. After treating chromarod with boric acid (3%) and drying for 5 min, 0.1 μl of the reaction medium (diluted in chloroform at appropriate dilution) is spotted onto the chromarod and the spotted sample was developed for 10 cm in a mixture of benzene:chloroform:acetic acid (50:30:0.5, by vol) for 35 min. After drying, the chromarod in an oven at 110° C. for 5 min, scanning is performed at a hydrogen flow rate of 160 ml/min and an air flow rate of 2.01/min to produce a chromatogram.
The results of the alcoholysis of the triacylglycerols catalysed by the lipase from […] after 7 h reactions time at 65° C. are given below as % of remaining substrate (TG) and % of the following products: fatty acid (FA), diglycerides (DG, with 1,3-DG separated from 1,2- and 2,3-DG), monoglyceride (MG, with 2-MG separated from 1- and 3-MG).

lipase of SEQ ID NO: 2 [5] = test: Substrate specificity for pNP-esters; type: biochemical, Thermoanaerobacter thermohydrosulfuricus; details: pNP-ester 1 mM, pH 8.0, 10 min at 70° C.
lipase of SEQ ID NO: 2 [6] = test: Effect of inhibitors on lipase activity; type: biochemical, Thermoanaerobacter thermohydrosulfuricus
lipase of SEQ ID NO: 4 = test: Effect of inhibitors on lipase activity; type: biochemical, Caldanaerobacter subterraneus subsp. tengcongensis

[Cu+2] [Cu2+]
lipase activity in the presence of metal ions (lipase): nearly unchanged

[Ni+2] [Ni2+]
lipase activity in the presence of metal ions (lipase): nearly unchanged

CC(=O)OC(C)c1ccccc1 (stereo not shown) [1-phenyl-1-ethyl-acetate]
lipase activity towards substrate (lipase of SEQ ID NO: 2 [1]): active

CCO [ethanol]
effect on the activity of the lipase (lipase of SEQ ID NO: 2 [2]): little effect

CCCCCCCCCCCCCC(=O)OCC(COC(=O)CCCCCCCCCCCCC)OC(=O)CCCCCCCCCCCCC [Trimyristin, Trimyristin (C14:0)]
Relative activity (lipase of SEQ ID NO: 2 [3]): 8
DG 1,2- 2,3- [4]: 2%
DG 1,3- [4]: 12%
FA (fatty acid) [4]: 1%
MG 1- 3- [4]: 19%
TG (remaining substrate) [4]: 66%

CC(C)(C)O [tert-butanol]
effect on the activity of the lipase (lipase of SEQ ID NO: 2 [2]): little effect

butynol acetate
enantiopreference (lipase of SEQ ID NO: 2 [1]): (S)-preference
lipase activity towards substrate (lipase of SEQ ID NO: 2 [1]): active
E-value (enantioselectivity) (lipase of SEQ ID NO: 2 [1]; after 40 h of reactions time): 2.65
E-value (enantioselectivity) (lipase of SEQ ID NO: 2 [1]; initial value): 9.2 and 9.15

CC(C)O [isopropanol]
effect on the activity of the lipase (lipase of SEQ ID NO: 2 [2]): little effect

CCCCCCCCCCCCCCCCCC(=O)OCC(COC(=O)CCCCCCCCCCCCCCCCC)OC(=O)CCCCCCCCCCCCCCCCC [Tristearin, Tristearin (C18:0)]
Relative activity (lipase of SEQ ID NO: 2 [3]): 9
conversion ([4]; alcoholysis of triacylglycerol): 67%
DG 1,3- [4]: 48%
FA (fatty acid) [4]: 10%
MG 1- 3- [4]: 9%
TG (remaining substrate) [4]: 33%

CN(C)C=O [dimethylformamide]
effect on the activity of the lipase (lipase of SEQ ID NO: 2 [2]): little effect

Triolein (C18:1)
Relative activity (lipase of SEQ ID NO: 2 [3]): 12
DG 1,3- [4]: 18%
FA (fatty acid) [4]: 2%
MG 1- 3- [4]: 17%
TG (remaining substrate) [4]: 63%

[Cr+3] [Cr3+]
lipase activity in the presence of metal ions (lipase): decreased

[Fe+3] [Fe3+]
lipase activity in the presence of metal ions (lipase): decreased

CCCCCCCC(=O)Oc1ccc([N+](=O)[O-])cc1 [pNP-caprylate, pNP-caprylate (C8:0)]
Relative activity (lipase of SEQ ID NO: 2 [5]): 90

CCCCCCCCCCCCCC(=O)Oc1ccc([N+](=O)[O-])cc1 [pNP-myristate, pNP-myristate (C14:0)]
Relative activity (lipase of SEQ ID NO: 2 [5]): 68

NCCc1ccc(S(=O)(=O)F)cc1 [Pefablock]
inactivation of the lipase (lipase of SEQ ID NO: 2 [6]; 0.1-1 mM): inactivated
inactivation of the lipase (lipase of SEQ ID NO: 4; 0.1-1 mM): inactivated

CCCCCCCCCCCCCCCC(=O)OCC(COC(=O)CCCCCCCCCCCCCCC)OC(=O)CCCCCCCCCCCCCCC [Tripalmitin, Tripalmitin (C16:0)]
Relative activity (lipase of SEQ ID NO: 2 [3]): 22
DG 1,2- 2,3- [4]: 1%
DG 1,3- [4]: 13%
FA (fatty acid) [4]: 3%
MG 1- 3- [4]: 18%
TG (remaining substrate) [4]: 65%

[Co+2] [Co2+]
lipase activity in the presence of metal ions (lipase): nearly unchanged

CO [methanol]
effect on the activity of the lipase (lipase of SEQ ID NO: 2 [2]): little effect

O[C@@H](CS)[C@@H](O)CS [DTT]
effect on the activity of the lipase (lipase of SEQ ID NO: 2 [6]; up to 10 mM): little effect
effect on the activity of the lipase (lipase of SEQ ID NO: 4; up to 10 mM): little effect

[Al+3] [Al3+]
lipase activity in the presence of metal ions (lipase): nearly unchanged

[Na+] [Na+]
lipase activity in the presence of metal ions (lipase): nearly unchanged

CCCCCCCCCCCCCCCCCC(=O)Oc1ccc([N+](=O)[O-])cc1 [pNP-stearate, pNP-stearate (C18:0)]
Relative activity (lipase of SEQ ID NO: 2 [5]): 8

[Fe+2] [Fe2+]
lipase activity in the presence of metal ions (lipase): decreased

CC#N [acetonitrile]
effect on the activity of the lipase (lipase of SEQ ID NO: 2 [2]): little effect

CCCCCCCCCCCC(=O)Oc1ccc([N+](=O)[O-])cc1 [pNP-laurate, pNP-laurate (C12:0)]
Relative activity (lipase of SEQ ID NO: 2 [5]): 84

CCCCCC(=O)OCC(COC(=O)CCCCC)OC(=O)CCCCC [Tricaproin, Tricaproin (C6:0)]
Relative activity (lipase of SEQ ID NO: 2 [3]): 74

[K+] [K+]
lipase activity in the presence of metal ions (lipase): nearly unchanged

CCCC(=O)Oc1ccc([N+](=O)[O-])cc1 [pNP-butyrate, pNP-butyrate (C4:0)]
Relative activity (lipase of SEQ ID NO: 2 [5]): 57

[Mn+2] [Mn2+]
lipase activity in the presence of metal ions (lipase): nearly unchanged

[Mg+2] [Mg2+]
lipase activity in the presence of metal ions (lipase): nearly unchanged

CC(=O)OCC(COC(C)=O)OC(C)=O [Triacetin, Triacetin (C2:0)]
Relative activity (lipase of SEQ ID NO: 2 [3]): 5

[Sr+2] [Sr2+]
lipase activity in the presence of metal ions (lipase): nearly unchanged

[Ca+2] [Ca2+]
lipase activity in the presence of metal ions (lipase): nearly unchanged

CCCCCCCCCCCCCCCC(=O)Oc1ccc([N+](=O)[O-])cc1 [pNP-palmitate, pNP-palmitate (C16:0)]
Relative activity (lipase of SEQ ID NO: 2 [5]): 32

C[S+](C)[O-] [DMSO]
effect on the activity of the lipase (lipase of SEQ ID NO: 2 [2]): little effect

c1ccncc1 [pyridine]
effect on the activity of the lipase (lipase of SEQ ID NO: 2 [2]): little effect

CCCCCCCCCC(=O)Oc1ccc([N+](=O)[O-])cc1 [pNP-caprate, pNP-caprate (C10:0)]
Relative activity (lipase of SEQ ID NO: 2 [5]): 100

CCCCCCCC(=O)OCC(COC(=O)CCCCCCC)OC(=O)CCCCCCC [Tricaprylin, Tricaprylin (C8:0)]
Relative activity (lipase of SEQ ID NO: 2 [3]): 100

CC(=O)OC(C)Cc1ccccc1 (stereo not shown) [1-phenyl-2-propyl-acetate]
lipase activity towards substrate (lipase of SEQ ID NO: 2 [1]): active

CCCC(=O)OCC(COC(=O)CCC)OC(=O)CCC [Tributyrin, Tributyrin (C4:0)]
Relative activity (lipase of SEQ ID NO: 2 [3]): 10

CC(=O)Oc1ccc([N+](=O)[O-])cc1 [pNP-acetate, pNP-acetate (C2:0)]
Relative activity (lipase of SEQ ID NO: 2 [5]): 9

CC(C)=O [acetone]
effect on the activity of the lipase (lipase of SEQ ID NO: 2 [2]): little effect

butynol butyrate
enantiopreference (lipase of SEQ ID NO: 2 [1]): (S)-preference
lipase activity towards substrate (lipase of SEQ ID NO: 2 [1]): active
E-value (enantioselectivity) (lipase of SEQ ID NO: 2 [1]; after 40 h of reactions time): 8.06
E-value (enantioselectivity) (lipase of SEQ ID NO: 2 [1]; initial value): 16.7

[Rb+] [Rb+]
lipase activity in the presence of metal ions (lipase): nearly unchanged

CCCCCCCCCC(=O)OCC(COC(=O)CCCCCCCCC)OC(=O)CCCCCCCCC [Tricaprin, Tricaprin (C10:0)]
Relative activity (lipase of SEQ ID NO: 2 [3]): 15

[Zn+2] [Zn2+]
lipase activity in the presence of metal ions (lipase): decreased

CCCCCCCCCCCC(=O)OCC(COC(=O)CCCCCCCCCCC)OC(=O)CCCCCCCCCCC [Trilaurin, Trilaurin (C12:0)]
Relative activity (lipase of SEQ ID NO: 2 [3]): 11
DG 1,2- 2,3- [4]: 6%
DG 1,3- [4]: 12%
FA (fatty acid) [4]: 2%
MG 1- 3- [4]: 22%
TG (remaining substrate) [4]: 58%

[Ag+] [Ag+]
lipase activity in the presence of metal ions (lipase): nearly unchanged

CCCCCC(=O)Oc1ccc([N+](=O)[O-])cc1 [pNP-caproate, pNP-caproate (C6:0)]
Relative activity (lipase of SEQ ID NO: 2 [5]): 81

From patent US7972831B2, “Lipases from thermophilic anaerobes” (Novozymes A/S, priority 2004, dated 2011)
